What was measured:
[1] = assay type: physicochemical
Text: The following tables are typical data sheets generated by the Chem3D software. These charts confirm the independent experimental solubility data and also, in Tables 1-3, show how modulation of the carrier system allows a higher dose of the test medicament, Diosgenin (MW=414.61).
It is pointed out, however, that the formulations shown in the following Tables, and which are based on the above described Stock Delivery System, were originally prepared without benefit of the use of the Chem 3D software and included omission of several different modifiers. Modifications to the SDS to effect solubilization and increase solute solvent ratios were made by the inventor on the basis of knowledge of how and where the solute (drug) works in the body and using this information to make intuitive predictions of how the solute would interact with the surrounding molecules of the SDS, such as induced polarities relative to other molecules; induction of electric fields due to influence of surrounding molecules; hydrophobic versus hydrophilic properties, etc., while always taking into consideration the desired functional effects contributed by each ingredient. […]

[2] = Pilot trial on three hairless rats, blood samples after topical delivery system; assay type: in vivo, hairless rat
Procedure: A pilot trial is performed on three hairless rats, during which a baseline blood sample is drawn, then 1 ml of the topical delivery system containing a titrated dose of each of the three test drugs is administered to each of the rats. Samples are harvested at 30 and 60 minutes.

[3] = Full-scale protocol trial on 15 hairless rats; details: topical
Procedure: Samples for the morphine and acyclovir groups are taken at 30 minutes, 60 minutes and 120 minutes.

[4] = Laboratory solubilization of amitriptyline in the modified stock delivery system; assay type: physicochemical; details: modified SDS; predicted amount within experimental error of the actual amount
Text: The following Table 4 illustrates how the balancing of molar van der Waals forces can be utilized as a predictor of the solubilization of amitriptyline in the stock delivery system. In this case the calculations for balancing molar van der Waals forces were made first using the Chem3D software and the solutions were thereafter formulated in the laboratory. The amount predicted to dissolve, 2.08 gm per 100 c.c., was within experimental error of the actual amount which would dissolve in the laboratory experiment. In this case, the system was balanced by increasing the amounts of methylsulfonylmethane and ethanol and decreasing the amount of propylene glycol.

air pouch granulomas = test: Murine Chronic Granulomatous Air-Pouch Model; assay type: in vivo, mouse; details: normally sub-effective dose (30 mg/kg); decrease in dry weight of the granuloma
Text: This example describes the results of an animal (mouse) study performed at St. Bartholomew's and The Royal London School of Medicine and Dentistry, Department of Experimental Pathology, to establish the efficacy of the topical delivery system, based on the Stock Delivery System of this invention for transdermal delivery of Cystamine (2,2′-dithiobisethanamine). A Murine Chronic Granulomatous Air-Pouch Model was used for evaluation of the delivery of the drug with SDS versus a control vehicle alone; control vehicle plus drug; and SDS alone.
In this study, 1 milligram (mg) of cystamine was added to 0.5 cc of Standard Stock Solution (SDS) as previously described, or to a control vehicle (aqueous isopropanol). In each case, the active ingredient (cystamine) was administered in an amount of 30 mg per kilogram of body weight.
Mice (TO or BALB/c, for hormone studies, 30±5 g) were lightly anaesthetized with halothane. Three milliliters of air were injected subcutaneously into the scruff of the neck using a 25 G needle. The shape of the air pouch was controlled by manipulation during inflation. […]
Vascularity was assessed by a modified form (see Kimura et al, [need citation] 1986) of the Carmine Red Vascular Casting technique. […] The dye content was measured spectrophotometrically at 490 nm against a standard curve of dye from 1-100 μg/ml. […]

## C[C@@H]1CC[C@@]2(OC1)O[C@H]1C[C@H]3[C@@H]4CC=C5C[C@@H](O)CC[C@]5(C)[C@H]4CC[C@]3(C)[C@H]1[C@@H]2C [Diosgenin, (25R)-Spirost-5-en-3β-ol]
[1]
  increase of solubilized dose: ~5 fold

## CN1CC[C@]23c4c5ccc(O)c4O[C@H]2[C@@H](O)C=C[C@H]3[C@H]1C5.O=S(=O)(O)O [morphine sulfate]
[2]; before 1 ml of the topical delivery system
  blood sample level, Baseline: 0
[2]; morphine 2.5 mg in 1 ml, topical
  blood sample level, 60 minutes: 45 nmol/L
[3]; 2.5 mg dose of morphine
  blood levels compared with intravenous dosing: equivalent to a 10 mg IV dose

## C[C@]12CC[C@H]3[C@@H](CCC4=CC(=O)CC[C@@]43C)[C@@H]1CC[C@@H]2O [Testosterone]
[2]; testosterone 5 mg in 1 ml, topical
  blood sample level, 30 minutes: 1,552 ng/dl
[3]; in one hour, 5 mg in 1 ml
  increase of testosterone levels: 10 fold

## CN(C)CCC=C1c2ccccc2CCc2ccccc21 [Amitriptyline]
[4]
  actual amount which would dissolve in the laboratory experiment: ~2.08 gm per 100 c.c.

## NCCSSCCN [cystamine, 2,2′-dithiobisethanamine]
Air pouch granulomas
  efficacy of the dose when delivered with SDS: effective dose

## Nc1nc2c(ncn2COCCO)c(=O)[nH]1 [Acyclovir]
[2]; hairless, rat, in vivo
  blood sample level, Baseline: 0

Source: patent publication US6444234B1, “Compositions for rapid and non-irritating transdermal delivery of pharmaceutically active agents and methods for formulating such compositions and delivery thereof” (priority 1998, dated 2002)
